How the values were obtained:
Oryctolagus cuniculus = organism: Oryctolagus cuniculus; assay: cells; format: functional, organism-based, Stomach
Description: In vitro inhibition of 14C amino-pyrine uptake was determined in isolated rabbit gastric glands after dbcAMP stimulation

Canis familiaris = organism: Canis familiaris; assay: animal or person; details: Canis lupus familiaris, Stomach, intraduodenal, read-out: Inhibition
animal or person = details: Canis lupus familiaris, Stomach, iv, read-out: Inhibition
Rattus norvegicus = organism: Rattus norvegicus; assay: animal or person; details: Stomach, iv, read-out: Inhibition
[1] = target: Potassium-transporting ATPase alpha chain 1 (Sus scrofa, UniProt P19156)
Sequence of Potassium-transporting ATPase alpha chain 1 (P19156 whole entry): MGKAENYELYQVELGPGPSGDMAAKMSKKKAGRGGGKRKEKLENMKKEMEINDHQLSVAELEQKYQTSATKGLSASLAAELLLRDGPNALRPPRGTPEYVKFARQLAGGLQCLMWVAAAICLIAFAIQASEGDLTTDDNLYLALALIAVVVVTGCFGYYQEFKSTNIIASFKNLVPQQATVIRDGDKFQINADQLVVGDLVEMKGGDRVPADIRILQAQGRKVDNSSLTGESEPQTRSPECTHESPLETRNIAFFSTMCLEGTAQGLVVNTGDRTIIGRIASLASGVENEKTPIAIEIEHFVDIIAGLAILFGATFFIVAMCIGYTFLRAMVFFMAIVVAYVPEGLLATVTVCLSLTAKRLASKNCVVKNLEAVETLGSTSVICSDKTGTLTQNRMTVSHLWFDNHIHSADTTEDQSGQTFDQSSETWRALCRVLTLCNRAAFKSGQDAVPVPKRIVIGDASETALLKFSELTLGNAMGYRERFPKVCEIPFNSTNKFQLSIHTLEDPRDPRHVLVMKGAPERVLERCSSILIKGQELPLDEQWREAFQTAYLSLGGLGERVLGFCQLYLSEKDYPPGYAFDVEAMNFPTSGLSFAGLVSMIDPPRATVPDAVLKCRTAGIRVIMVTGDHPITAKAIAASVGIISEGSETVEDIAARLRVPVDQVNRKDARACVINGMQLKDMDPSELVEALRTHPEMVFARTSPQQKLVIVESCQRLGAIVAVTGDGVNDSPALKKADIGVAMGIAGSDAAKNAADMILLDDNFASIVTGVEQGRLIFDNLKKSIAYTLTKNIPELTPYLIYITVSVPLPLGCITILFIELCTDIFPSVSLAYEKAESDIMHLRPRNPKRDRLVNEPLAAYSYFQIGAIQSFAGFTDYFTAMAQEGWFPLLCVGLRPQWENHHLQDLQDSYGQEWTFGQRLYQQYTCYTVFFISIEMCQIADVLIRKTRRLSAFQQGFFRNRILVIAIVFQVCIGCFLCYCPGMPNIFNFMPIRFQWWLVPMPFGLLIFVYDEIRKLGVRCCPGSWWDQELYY
Description: In vitro inhibitory concentration against H+/K+ ATPase from pig stomach by probit analysis

Description for physchem: pKa value of the compound

Structure (SMILES) | IC50 (Oryctolagus cuniculus; Stomach) [µM] | inhibition in vivo at 0.3 mg/kg (animal or person) [%] | inhibition in vivo at 0.5 mg/kg (Rattus norvegicus) [%] | other results
COc1ccnc(C[S+]([O-])c2nc3cscc3[nH]2)c1Br (stereo not given) | 2 | 73 | 71 | inhibition in vivo at 1 mg/kg (Canis familiaris): -11%; pKa (physchem): 3.52
COC(=O)c1sc2[nH]c([S+]([O-])Cc3ccccn3)nc2c1C(=O)OC (stereo not given) | 1000 | – | – | –
[O-][S+](Cc1cc(OCC(F)(F)C(F)(F)F)ccn1)c1nc2cscc2[nH]1 (stereo not given) | 1 | – | 81 | –
COc1cc(C[S+]([O-])c2nc3cscc3[nH]2)ncc1Br (stereo not given) | 19 | 59 | 62 | inhibition in vivo at 1 mg/kg (Canis familiaris): 53%
[O-][S+](Cc1ccc(Cl)cn1)c1nc2cscc2[nH]1 (stereo not given) | 1000 | – | 26 | –
Cc1sc(C)c2[nH]c([S+]([O-])Cc3cc(OCC(F)(F)C(F)(F)F)ccn3)nc12 (stereo not given) | 1 | – | – | –
[O-][S+](Cc1cc(Oc2ccc(F)cc2F)ccn1)c1nc2cscc2[nH]1 (stereo not given) | 0.3 | 74 | 56 | –
CCOc1ccnc(C[S+]([O-])c2nc3cscc3[nH]2)c1Cl (stereo not given) | 2 | – | – | –
[O-][S+](Cc1cc(Oc2ccc(F)cc2)ccn1)c1nc2cscc2[nH]1 (stereo not given) | 4 | 85 | 84 | inhibition in vivo at 1 mg/kg (Canis familiaris): 97%
COc1c(OCC(F)(F)C(F)(F)C(F)(F)C(F)F)ccnc1C[S+]([O-])c1nc2cscc2[nH]1 (stereo not given) | 1 | – | 64 | IC50 [1]: 12 µM; inhibition in vivo at 1 mg/kg (Canis familiaris): 63%
COc1c(OCc2ccc(F)cc2)ccnc1C[S+]([O-])c1nc2cscc2[nH]1 (stereo not given) | 0.3 | 73 | 78 | inhibition in vivo at 1 mg/kg (Canis familiaris): 76%
[O-][S+](Cc1cc(OCc2ccc(C(F)(F)F)cc2)ccn1)c1nc2cscc2[nH]1 (stereo not given) | 0.6 | – | 80 | inhibition in vivo at 1 mg/kg (Canis familiaris): 94%; pKa (physchem): 3.74
[O-][S+](Cc1cc(OCc2ccc(Cl)cc2)ccn1)c1nc2cscc2[nH]1 (stereo not given) | 0.4 | – | 78 | –
COc1c(C)cnc(C[S+]([O-])c2nc3cscc3[nH]2)c1Cl (stereo not given) | – | 52 | 43 | –
CC(C)Oc1ccnc(C[S+]([O-])c2nc3cscc3[nH]2)c1Cl (stereo not given) | 1 | 87 | 80 | –
COCCOc1ccnc(C[S+]([O-])c2nc3cscc3[nH]2)c1Cl (stereo not given) | – | – | 63 | –
COC(=O)c1sc2[nH]c([S+]([O-])Cc3cc(OC)ccn3)nc2c1C(=O)OC (stereo not given) | 1000 | – | – | –
[O-][S+](Cc1cc(OCc2ccccc2)ccn1)c1nc2cscc2[nH]1 (stereo not given) | 0.5 | – | – | –
COc1ccnc(C[S+]([O-])c2nc3ccsc3[nH]2)c1 (stereo not given) | 1000 | – | – | –
[O-][S+](Cc1cc(Oc2cccc(C(F)(F)F)c2)ccn1)c1nc2cscc2[nH]1 (stereo not given) | 2.2 | – | 64 | inhibition in vivo at 1 mg/kg (Canis familiaris): 66%
COc1ccnc(C[S+]([O-])c2nc3cscc3[nH]2)c1OC (stereo not given) | 3.6 | 82 | 54 | –
[O-][S+](Cc1cc(OCc2ccc(F)cc2F)ccn1)c1nc2cscc2[nH]1 (stereo not given) | 1 | – | 76 | –
[O-][S+](Cc1cc(OCc2cc(F)cc(F)c2)ccn1)c1nc2cscc2[nH]1 (stereo not given) | 0.7 | – | 70 | inhibition in vivo at 1 mg/kg (Canis familiaris): 96%
[O-][S+](Cc1cc(Oc2ccc(Cl)c(Cl)c2)ccn1)c1nc2cscc2[nH]1 (stereo not given) | 2.3 | 62 | 49 | –

Structure (SMILES) | IC50 (Oryctolagus cuniculus; Stomach) [µM] | inhibition in vivo at 0.3 mg/kg (animal or person) [%] | inhibition in vivo at 0.5 mg/kg (Rattus norvegicus) [%] | other results
[O-][S+](Cc1cc(OCC(F)(F)C(F)F)ccn1)c1nc2cscc2[nH]1 (stereo not given) | 2 | 66 | 89 | inhibition in vivo at 1 mg/kg (Canis familiaris): 91%
[O-][S+](Cc1ccccn1)c1nc2c(-c3ccccc3)scc2[nH]1 (stereo not given) | 31 | – | – | –
Cc1sc(C)c2[nH]c([S+]([O-])Cc3nccc(OC(C)C)c3Cl)nc12 (stereo not given) | 2.5 | – | 32 | –
[O-][S+](Cc1ncccc1OCC(F)(F)F)c1nc2cscc2[nH]1 (stereo not given) | 120 | – | 23 | –
Cc1cccc(C[S+]([O-])c2nc3cscc3[nH]2)n1 (stereo not given) | 300 | – | – | –
COc1c(OCC(F)(F)C(F)(F)C(F)(F)F)ccnc1C[S+]([O-])c1nc2cscc2[nH]1 (stereo not given) | – | – | 70 | IC50 [1]: 7 µM; inhibition in vivo at 1 mg/kg (Canis familiaris): 66%; IC50 (Oryctolagus cuniculus): 1.1 µM
[O-][S+](Cc1nccc(Oc2ccccc2)c1Cl)c1nc2cscc2[nH]1 (stereo not given) | 61 | – | 0 | –
COc1ccnc(C[S+]([O-])c2nc3c(C)sc(C)c3[nH]2)c1 (stereo not given) | 12 | 66 | – | –
Cc1sc(C)c2[nH]c([S+]([O-])Cc3cc(OCC(F)(F)F)ccn3)nc12 (stereo not given) | 3.7 | 54 | – | IC50 [1]: 2 µM
Cc1ccc(C[S+]([O-])c2nc3c(C)sc(C)c3[nH]2)nc1 (stereo not given) | 6 | 46 | 58 | –
[O-][S+](Cc1cc(OCC(F)(F)C(F)(F)C(F)(F)C(F)F)ccn1)c1nc2cscc2[nH]1 (stereo not given) | 3 | – | – | IC50 [1]: 2 µM
CCOc1ccnc(C[S+]([O-])c2nc3cscc3[nH]2)c1 (stereo not given) | 3 | – | – | pKa (physchem): 3.92
[O-][S+](Cc1cc(Oc2ccc(Cl)cc2)ccn1)c1nc2cscc2[nH]1 (stereo not given) | 2 | 76 | 66 | –
[O-][S+](Cc1nccc(OCC(F)(F)F)c1Cl)c1nc2cscc2[nH]1 (stereo not given) | 1000 | – | – | –
COc1ccc(C[S+]([O-])c2nc3cscc3[nH]2)nc1 (stereo not given) | 1000 | – | 38 | –
[O-][S+](Cc1cc(OCC(F)(F)F)ccn1)c1nc2cscc2[nH]1 (stereo not given) | 3 | 62 | 96 | inhibition in vivo at 1 mg/kg (Canis familiaris): 73%; pKa (physchem): 3.83
COc1c(C)cnc(C[S+]([O-])c2nc3cscc3[nH]2)c1C (stereo not given) | 1000 | – | – | –
COc1ccnc(C[S+]([O-])c2nc3cscc3[nH]2)c1C (stereo not given) | 1000 | – | – | –
[O-][S+](Cc1cc(OCC(F)(F)C(F)(F)F)c(Cl)cn1)c1nc2cscc2[nH]1 (stereo not given) | – | – | 38 | –
[O-][S+](Cc1cc(OC(F)F)ccn1)c1nc2cscc2[nH]1 (stereo not given) | – | – | – | IC50 (Oryctolagus cuniculus): 1000 µM
Cc1cnc(C[S+]([O-])c2nc3cscc3[nH]2)c(C)c1 (stereo not given) | 50 | 91 | – | –
Cc1c(OCC(F)(F)C(F)(F)F)ccnc1C[S+]([O-])c1nc2cscc2[nH]1 (stereo not given) | 0.5 | 64 | 72 | inhibition in vivo at 1 mg/kg (Canis familiaris): 45%
COc1c(OCc2cc(C(F)(F)F)cc(C(F)(F)F)c2)ccnc1C[S+]([O-])c1nc2cscc2[nH]1 (stereo not given) | 0.5 | – | 65 | –

Further lines, with some results ahead:

IC50 (Oryctolagus cuniculus; Stomach) [µM] | Structure (SMILES) | inhibition in vivo at 0.3 mg/kg (animal or person) [%] | inhibition in vivo at 0.5 mg/kg (Rattus norvegicus) [%] | other results
1000 | [O-][S+](Cc1ncccc1OC(F)F)c1nc2cscc2[nH]1 (stereo not given) | – | – | –
10 | [O-][S+](Cc1nccc(OCC(F)(F)C(F)(F)F)c1Cl)c1nc2cscc2[nH]1 (stereo not given) | – | – | –
0.5 | COc1c(OCc2ccc(C(F)(F)F)cc2)ccnc1C[S+]([O-])c1nc2cscc2[nH]1 (stereo not given) | – | 51 | inhibition in vivo at 1 mg/kg (Canis familiaris): 91%
195 | [O-][S+](Cc1cc(OC(C(F)(F)F)C(F)(F)F)ccn1)c1nc2cscc2[nH]1 (stereo not given) | – | 39 | pKa (physchem): 3.5
4.2 | COc1c(C)cnc(C[S+]([O-])c2nc3c(-c4ccccc4)scc3[nH]2)c1C (stereo not given) | – | 46 | inhibition in vivo at 1 mg/kg (Canis familiaris): 39%
1 | [O-][S+](Cc1ncccc1Cl)c1nc2cscc2[nH]1 (stereo not given) | – | – | –
31 | COc1cc(C[S+]([O-])c2nc3cscc3[nH]2)ncc1Cl (stereo not given) | 38 | 58 | inhibition in vivo at 1 mg/kg (Canis familiaris): 55%; pKa (physchem): 3.44
3 | CCCOc1ccnc(C[S+]([O-])c2nc3cscc3[nH]2)c1Cl (stereo not given) | – | – | –
3 | COc1ccnc(C[S+]([O-])c2nc3cscc3[nH]2)c1OC(F)(F)C(F)F (stereo not given) | 65 | 51 | inhibition in vivo at 1 mg/kg (Canis familiaris): 14%
25 | Cc1cccnc1C[S+]([O-])c1nc2cscc2[nH]1 (stereo not given) | – | – | –
1.1 | [O-][S+](Cc1cc(OCc2cc(Cl)cc(Cl)c2)ccn1)c1nc2cscc2[nH]1 (stereo not given) | – | 64 | –
0.8 | [O-][S+](Cc1nccc(OCC(F)(F)F)c1OCC(F)(F)F)c1nc2cscc2[nH]1 (stereo not given) | 13 | 35 | inhibition in vivo at 1 mg/kg (Canis familiaris): 45%
32 | CC(=O)c1scc2[nH]c([S+]([O-])Cc3cc(OCC(F)(F)F)ccn3)nc12 (stereo not given) | – | – | –
1 | CCCCOc1ccnc(C[S+]([O-])c2nc3cscc3[nH]2)c1 (stereo not given) | 87 | 81 | –
3 | COc1ccc(-c2scc3[nH]c([S+]([O-])Cc4ncc(C)c(OC)c4C)nc23)cc1 (stereo not given) | – | 24 | –
19 | COc1ccnc(C[S+]([O-])c2nc3cscc3[nH]2)c1 (stereo not given) | 84 | 82 | pKa (physchem): 4.16
15 | Cc1sc(C)c2[nH]c([S+]([O-])Cc3ccccn3)nc12 (stereo not given) | – | – | –
1000 | [O-][S+](Cc1ncccc1F)c1nc2cscc2[nH]1 (stereo not given) | – | – | –
1.1 | [O-][S+](Cc1cc(OCc2cc(C(F)(F)F)cc(C(F)(F)F)c2)ccn1)c1nc2cscc2[nH]1 (stereo not given) | – | 43 | inhibition in vivo at 1 mg/kg (Canis familiaris): 87%
26 | Cc1sc(C)c2[nH]c([S+]([O-])Cc3cc(OCC(F)(F)C(F)(F)C(F)(F)F)ccn3)nc12 (stereo not given) | – | – | –
1 | Cc1cnc(C[S+]([O-])c2nc3cscc3[nH]2)cc1OCC(F)(F)F (stereo not given) | 83 | 69 | inhibition in vivo at 1 mg/kg (Canis familiaris): 92%
